Assay results taken from patent US8017612B2, “Piperazine compound and use thereof as a HCV polymerase inhibitor” (priority 2006, dated 2011).

Tests used:
[1] = biological target: T1, HCV polymerase (NS5B) type 1a (Hepatitis C virus genotype 1a, UniProt P26664); assay: Assay of enzyme (HCV polymerase) inhibitory activity, type 1a enzyme; format: biochemical, HCV type 1a (cloned from the blood of patients)
T1 construct: made in house; host or cells: Escherichia coli (by the 'similar method' of the 1b enzyme)
How it was run: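 His-tagged NS5B, C-terminal 47 residues deleted, type 1a at 1.5 μg/ml, with 5 μg/ml HCV 3′UTR substrate RNA, 50 μM ATP/GTP/CTP, 2 μM UTP plus [3H]UTP, pH 7.5 Tris, 5 mM MgCl2; 60 min at 25° C. TCA-precipitated RNA counted by scintillation; IC50 from radioactivity with vs. without compound.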

[2] = biological target: T2, HCV polymerase (NS5B) type 1b (Hepatitis C virus genotype 1b, UniProt P26663); assay: Assay of enzyme (HCV polymerase) inhibitory activity, type 1b enzyme; format: biochemical, HCV BK strain (type 1b)
T2 construct: a region encoding NS5B (J Virol 1991 March, 65(3), 1105-13, 544 amino acids after deletion of 47 amino acids on the C-terminal); 6xHis (C); made in house; host or cells: Escherichia coli
How it was run: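 His-tagged, C-terminally truncated NS5B (BK strain, 1b; 0.5 μg/ml) incubated with compound 60 min at 25 °C on 3′UTR-derived substrate RNA (5 μg/ml), 50 μM ATP/GTP/CTP, 2 μM UTP plus [3H]UTP, pH 7.5. Acid-precipitated RNA counted; IC50 from radioactivity with and without compound.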

[3] = HCV polymerase inhibitory activity (IC50), 1a, type 1a enzyme 1.5 μg/ml, 25° C., 60 min
[4] = HCV polymerase inhibitory activity (IC50), 1b, type 1b enzyme 0.5 μg/ml, 25° C., 60 min
[5] = HCV polymerase inhibitory activity IC50, 1a, type 1a enzyme
[6] = HCV polymerase inhibitory activity IC50, 1b, type 1b enzyme

Compound	IC50 [1, 3]	IC50 [2, 4]	IC50 [1, 5]	IC50 [2, 6]
COC(=O)c1cnc(N2CCN(S(=O)(=O)c3ccc(C(F)(F)F)cc3)[C@@H](C(=O)NCc3ccc(C(C)C)cc3)C2)c(C)n1 [Example 431, (R)-3-(4-isopropyl-benzylcarbamoyl)-3′-methyl-4-(4-trifluoromethyl-benzenesulfonyl)-3,4,5,6-tetrahydro-2H-[1,2′]bipyrazinyl-5′-carboxylic acid methyl ester]	100 to 1000 nM	100 to 1000 nM		
CCC(F)(F)c1ccc(CNC(=O)[C@H]2CN(C(=O)CC(=O)O)CCN2S(=O)(=O)c2ccc(OC(F)(F)F)cc2)cc1 [Example 678, 3-[(R)-3-[4-(1,1-difluoro-propyl)-benzylcarbamoyl]-4-(4-trifluoromethoxy-benzenesulfonyl)-piperazin-1-yl]-3-oxo-propionic acid]			> 1000 nM	> 1000 nM
O=C(NCC1CC1c1ccccc1)[C@H]1CN(c2cnc3cncnc3n2)CCN1S(=O)(=O)c1ccc(OC(F)(F)F)cc1 (stereo partly drawn) [Example 849, (R)-4-pteridin-7-yl-1-(4-trifluoromethoxy-benzenesulfonyl)-piperazine-2-carboxylic acid (2-phenyl-cyclopropylmethyl)-amide]			100 to 1000 nM	< 100 nM
CCC(F)(F)c1ccc(CNC(=O)[C@H]2CN(c3nc4ccccc4[nH]3)CCN2S(=O)(=O)c2ccc(OC(F)(F)F)cc2)cc1 [Example 758, (R)-4-(1H-benzimidazol-2-yl)-1-(4-trifluoromethoxy-benzenesulfonyl)-piperazine-2-carboxylic acid 4-(1,1-difluoro-propyl)-benzylamide]			< 100 nM	< 100 nM
CCN(C)c1ccc(CNC(=O)[C@H]2CN(c3cnc4cncnc4n3)CCN2S(=O)(=O)c2ccc(OC(F)(F)F)cc2)cc1 [Example 619, (R)-4-pteridin-7-yl-1-(4-trifluoromethoxy-benzenesulfonyl)-piperazine-2-carboxylic acid 4-(ethyl-methyl-amino)-benzylamide]	< 100 nM	< 100 nM		
CCCc1ccc(CNC(=O)[C@H]2CN(c3ccc(C(=O)OC(C)(C)C)s3)CCN2S(=O)(=O)c2ccc(OC(F)(F)F)cc2)cc1 [Example 728, 5-[(R)-3-(4-propyl-benzylcarbamoyl)-4-(4-trifluoromethoxy-benzenesulfonyl)-piperazin-1-yl]-thiophene-2-carboxylic acid tert-butyl ester]			100 to 1000 nM	100 to 1000 nM
O=C(NCc1ccc(OC(F)(F)F)cc1)[C@H]1CN(C(=O)Cc2ccncc2)CCN1S(=O)(=O)c1ccc(OC(F)(F)F)cc1 [Example 409, (R)-4-(2-pyridin-4-yl-acetyl)-1-(4-trifluoromethoxy-benzenesulfonyl)-piperazine-2-carboxylic acid 4-trifluoromethoxy-benzylamide]	100 to 1000 nM	100 to 1000 nM		
CCC(F)(F)c1ccc(CNC(=O)[C@H]2CN(C(=O)Nc3nccs3)CCN2S(=O)(=O)c2ccc(OC(F)(F)F)cc2)cc1 [Example 554, (R)-4-(4-trifluoromethoxy-benzenesulfonyl)-piperazine-1,3-dicarboxylic acid 3-[4-(1,1-difluoro-propyl)-benzylamide] 1-thiazol-2-ylamide]	100 to 1000 nM	< 100 nM		
COCc1ccc(CNC(=O)[C@H]2CN(c3cnc4cncnc4n3)CCN2S(=O)(=O)c2ccc(OC(F)(F)F)cc2)cc1 [Example 657, (R)-4-pteridin-7-yl-1-(4-trifluoromethoxy-benzenesulfonyl)-piperazine-2-carboxylic acid 4-methoxymethyl-benzylamide]	< 100 nM	< 100 nM		
CC(=O)N1CCN(S(=O)(=O)c2ccccc2Cl)C(C(=O)NCc2ccc(C(F)(F)F)cc2)C1 (centres unmarked) [Example 21, 4-acetyl-1-(2-chloro-benzenesulfonyl)-piperazine-2-carboxylic acid 4-trifluoromethyl-benzylamide]	> 1000 nM	> 1000 nM		
